The values below come from patent US4230719A, “Novel 2-[4-(3-methyl-2-thienyl)phenyl]propionic acid and pharmaceutically acceptable salt thereof and method for treating symptoms of inflammation and pain” (Toyama Chemical Co., Ltd., priority 1977, dated 1980).

The test system of experiment [1] is Phenol Red (PSP) excretion. The experiment in a line: Uricosuric action (a), inhibition of Phenol Red (PSP) excretion. The experiment is classed as in vivo, rabbit (male). As to the method:
(a) The action was examined by the method of B. B. Brodie et al. who reported that the inhibitory action on Phenol Red (PSP) excretion correlates with the uricosuric action [Proc. Soc. Exp. Biol. Med., 86, 884 (1954)]. To a male rabbit weighing 2 to 3 kg was intraperitoneally administered the test compound. After 30 minutes, 75 mg/kg of a Phenol Red suspension was injected into the pinna vein of the rabbit and 30 minutes thereafter a blood sample was drawn from the pinna vein. The blood sample was centrifuged and the serum was diluted with physiological saline. The diluted serum was treated with 0.1 N NaOH to develop the color. The concentration of Phenol Red in the serum was determined from the absorbance at 560 mμ.

The next experiment has as its system Glomerulonephritis. The experiment in a line: Action on glomerulonephritis in rats. It is filed as in vivo, rat (Wistar strain, male). Conditions: 25 mg/kg p.o./day. The source says:
(ii) Action on glomerulonephritis in rats
Glomerulonephritis was induced in Wistar strain male rats (each weighing 180 to 200 g) by use of an anti-rat's kidney rabbit serum obtained from the serum of a rabbit sensitized with a homogenate of rat's kidney cortice. To the rat producing stable proteinuria was orally administered the test compound repeatedly at the rate shown in Table 12 for 2 weeks, and the inhibition of uric protein was examined.

Another experiment concerns uric acid in plasma. The experiment in a line: Uricosuric action (b), uric acid in plasma of uric acid loaded rats. It is filed as in vivo, rat (Wistar strain, male). The protocol:
(b) After fasting overnight, the test compound was orally administered to a Wistar strain male rat weighing 150 to 200 g. After one hour, the rat was loaded with 100 mg/kg of uric acid by intraperitoneal administration. Thirty minutes thereafter, a blood sample was drawn from the cervical vein and the uric acid concentration in the plasma was determined by use of a kit (Uric acid test Wako) for the uric acid determination.

The subject of experiment [2] is threshold value of pain due to pressure stimuli (tail). Conditions: for Analgesic effect: 100% = threshold raised by 160 g.
In experiment [3] the test system is prostaglandin biosynthesis (homogenate of guinea pig's lung). The experiment in a line: Inhibitory action on prostaglandin biosynthesis (TBA method). Conditions: read-out: ID50.
From the text: Using a homogenate of guinea pig's lung as an enzyme preparation for the biosynthesis of prostaglandin, the inhibitory activity of the test compound against the prostaglandin biosynthesis was examined by the TBA (thiobarbituric acid) method.
For experiment [4], the system named is fever (Mycobacterium butyricum). The experiment in a line: Antipyretic action. It is filed as in vivo, rat (Wistar strain, female). As to the method: A suspension (0.6 mg/0.1 ml) of killed and dried Mycobacterium butyricum in liquid paraffin was subcutaneously injected in an amount of 0.1 ml into the subplantar region of the hind paw of each Wistar strain female rat weighing about 180 g. After 14 hours, the fevered rats were divided into groups, and each test compound was orally administered to each group to examine the antipyretic effect.

Read-outs that look alike come from different tables or passages of the source.

In the case of `CCCCC1C(=O)N(c2ccccc2)N(c2ccccc2)C1=O` [Phenylbutazone], the figures for the “Concentration of PSP in serum, mean ± S.E.” value in experiment [1] (50 mg/kg i.p.) and in experiment [1] (100 mg/kg i.p.) were 174.0 ± 5.0 µg/mL and 238.0 ± 15.9 µg/mL, respectively. Also, the “Inhibition of uric protein” value in the experiment on Glomerulonephritis (7th day) amounted to 1.0%; in the experiment with Glomerulonephritis (14th day), 11.2%. Also, the “Uric acid concentration in plasma, mean ± S.E.” value in the experiment with uric acid in plasma (50 mg/kg p.o.) was 5.3 ± 0.37 mg/dL; with uric acid in plasma (100 mg/kg p.o.) it was 3.3 ± 0.25 mg/dL. Moreover, the Analgesic effect in experiment [2] (25 mg/kg p.o.) is 26%; in experiment [2] (100 mg/kg p.o.), 70%. Besides, in experiment [2] (Mus musculus, po), the ED50 (usually the dose at which the effect has come halfway, by size or by number of responders) was determined as 53 mg/kg. For the same molecule, the IC50 in experiment [3] amounted to 68 µM. Besides, the “Mean decrease in temp.” value in experiment [4] (5 mg/kg p.o.) was found to be 0.27 °C; in experiment [4] (20 mg/kg p.o.), 1.10 °C; in experiment [4] (100 mg/kg p.o.), 1.35 °C. Besides, the ED1.0 in experiment [4] (Rattus norvegicus, po) was found to be 26.5 mg/kg.
